Laboratory results as given in patent US20170066741A1, “2-Amino-3,5,5-Trifluoro-3,4,5,6-Tetrahydropyridines as BACE1 Inhibitors for Treatment of Alzheimer's Disease” (H. Lundbeck A/S, priority 2014, published 2017).

Target: T1, BACE1 enzyme (Homo sapiens, UniProt P56817)
T1 construct: purchased Life Technologies P2985
Test: BACE1 efficacy assay (FRET-based, commercial BACE1 kit)
Type: biochemical
Conditions: test compound 10 μM
Protocol: The efficacy assay was performed as a FRET-based assay using a commercially available BACE1 kit (Life Technologies, P2985). 2 μl test compound at 10 μM (final concentration) and 15 μl BACE1 enzyme from the kit (final concentration 3 nM) were preincubated for 15 minutes at room temperature before addition of […] of substrate from the kit (250 nM final concentration) and incubated for additional 90 minutes at room temperature. The assay plate was subsequently read in a Pherastar (Ex540/Em590). […] The efficacy of the test compounds was evaluated at 10 μM (final concentration) and defined as the percent inhibition of the enzyme activity using the equation % inhibition=100%−normalized enzyme activity in percent.

T1 sequence (P56817 46-501): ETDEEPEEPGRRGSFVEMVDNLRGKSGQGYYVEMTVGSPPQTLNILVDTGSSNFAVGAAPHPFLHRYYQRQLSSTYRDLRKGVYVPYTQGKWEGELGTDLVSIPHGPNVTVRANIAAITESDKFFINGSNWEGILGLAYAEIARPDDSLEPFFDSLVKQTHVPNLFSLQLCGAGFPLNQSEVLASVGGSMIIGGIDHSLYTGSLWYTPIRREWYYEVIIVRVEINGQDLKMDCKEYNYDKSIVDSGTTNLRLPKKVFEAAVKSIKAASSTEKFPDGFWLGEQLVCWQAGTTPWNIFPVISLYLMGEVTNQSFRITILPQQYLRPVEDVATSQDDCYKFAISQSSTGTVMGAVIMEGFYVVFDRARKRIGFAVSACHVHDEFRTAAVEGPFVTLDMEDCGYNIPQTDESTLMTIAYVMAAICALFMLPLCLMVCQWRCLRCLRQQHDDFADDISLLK

Row | inhibition at 10 µM [%] | Compound
1 | 102 | Cc1cc(C#N)cnc1C(=O)Nc1ccc(F)c([C@@]2(C)N=C(N)[C@@](C)(F)CC2(F)F)c1 [Compound 18, N-(3-((2R,5S)-6-amino-3,3,5-trifluoro-2,5-dimethyl-2,3,4,5-tetrahydropyridin-2-yl)-4-fluorophenyl)-5-cyano-3-methylpicolinamide]
2 | 102 | C[C@@]1(F)CC(F)(F)[C@@](C)(c2cc(NC(=O)c3ccn(C(F)F)n3)ccc2F)N=C1N [Compound 23, N-(3-((2R,5R)-6-amino-3,3,5-trifluoro-2,5-dimethyl-2,3,4,5-tetrahydropyridin-2-yl)-4-fluorophenyl)-1-(difluoromethyl)-1H-pyrazole-3-carboxamide]
3 | 101 | COc1ccc(C(=O)Nc2ccc(F)c([C@@]3(C)N=C(N)[C@@](C)(F)CC3(F)F)c2)nc1 [Compound 17, N-(3-((2R,5S)-6-amino-3,3,5-trifluoro-2,5-dimethyl-2,3,4,5-tetrahydropyridin-2-yl)-4-fluorophenyl)-5-methoxypicolinamide]
